Results taken from US11596615B2, “Compositions and methods for treatment of insulin resistance” (Temple University—Of The Commonwealth System Of Higher …, priority 2016, dated 2023).
Structures can show the parent of a compound that is named as a salt.

Tests used:
GLUT4 = GLUT4 carbonylation (K264-HNE adduct) in 3T3-L1 cells overexpressing GLUT4, MRM; format: cell-based; settings: 20 μM for 4 hour, FIG. 1A-1B
Procedure: A GLUT4-SNAP fusion construct was generated. 3T3-L1 adipocytes were then retrovirally transduced with the construct to overexpress the GLUT4-SNAP protein. Twenty-four hours after the transduction, the cells were treated with and without 20 μM of 4-HNE for an additional 4 hours. This 4-HNE dose was chosen because it was similar to the physiological levels and was non-toxic. In order to identify and quantitate GLUT4 carbonylation (K264 NHE-adduct or R265 and R246 glutamic semialdehyde adducts), a mass spectroscopy-based multiple reaction monitoring (MRM) method was developed and validated.

3T3-L1 adipocytes [1] = experiment: Effect of 4-HNE and H2O2 on insulin-induced glucose uptake by 3T3-L1 adipocytes; format: cell-based, mouse; settings: 500 μM for 4 hour, then 100 nM insulin 60 minutes; FIG. 2
Procedure: 3T3-L1 adipocytes (1×10^6) were treated with either 500 μM of 4-HNE or H2O2 or combination of both for 4 hour and were then stimulated with 100 nM insulin for 60 minutes. The glucose uptake was measured by a specific MRM method.

3T3-L1 adipocytes [2] = experiment: Restoring glucose uptake in insulin-stimulated 3T3-L1 cells exposed to 4-HNE and H2O2 (FIG. 13); format: cell-based, mouse; settings: 10 μM pretreatment 12 hours, then 4HNE and H2O2 4 hours; for glucose uptake impairment induced by 4-HNE and H2O2: FIG. 13
Procedure: Insulin-stimulated 3T3-L1 adipocytes were pretreated with the drug (S)-2-amino-6-((3-aminopropyl)amino)hexanoic acid dihydrochloride (10 μM) for 12 hours followed by exposure to 4HNE and H2O2 for an additional 4 hours. The amounts of glucose taken up by the 3T3-L1 adipocytes were measured by the MRM methods described above. The results in FIG. 13 show the effect of the drug in restoring glucose uptake in insulin-stimulated 3T3-L1 cells exposed to 4-HNE and H2O2: Control cells, no insulin (C− No Ins); control cells, with insulin (C+ Ins); 4HNE+H2O2-treated cells (4HNE/H2O2) and cells treated with drug+4HNE+H2O2 (“APL”).
Insulin-stimulated 3T3-L1 adipocytes were pretreated with the drug (S)-2-amino-5-((6-aminohexyl)amino)pentanoic acid dihydrochloride (10 μM) for 12 hours followed by exposure to 4HNE and H2O2 for an additional 4 hours. The amounts of glucose taken up by the 3T3-L1 adipocytes were measured by the MRM methods described above. FIG. 13 includes the results: cells treated with (S)-2-amino-5-((6-aminohexyl)amino)pentanoic acid trihydrochloride (MC-180351).
Insulin-stimulated 3T3-L1 adipocytes were pretreated with the drug (S)-2-amino-5-(([…])amino)pentanoic acid dihydrochloride (10 μM) for 12 hours followed by exposure to 4HNE and H2O2 for an additional 4 hours. The amounts of glucose taken up by the 3T3-L1 adipocytes were measured by the MRM methods described above. FIG. 13 includes the results: cells treated with (S)-2-amino-5-((5-aminopentyl)amino)pentanoic acid trihydrochloride (MC-180352).

| Compound | formation of K264-HNE GLUT4 adduct (GLUT4) | reduction of glucose uptake (3T3-L1 adipocytes [1]) [%] | GLUT4 carbonylations (3T3-L1 adipocytes [2]) | glucose uptake impairment induced by 4-HNE and H2O2 (3T3-L1 adipocytes [2]) |
| --- | --- | --- | --- | --- |
| CCCCCC(O)/C=C/C=O (stereo not shown) [Example 4-HNE, 4-hydroxynonenal] | induced the formation of the K264-HNE adduct | 32 |  |  |
| NCCCCCNCCC[C@H](N)C(=O)O [MC-180352, (S)-2-amino-5-((5-aminopentyl)amino)pentanoic acid trihydrochloride] |  |  | reduce GLUT4 carbonylations | prevent glucose uptake impairment induced by 4-HNE and H2O2 |
| OO [Example H2O2, H2O2] |  | 66 |  |  |
| NCCCCCCNCCC[C@H](N)C(=O)O [MC-180351, (S)-2-amino-5-((6-aminohexyl)amino)pentanoic acid trihydrochloride] |  |  | reduce GLUT4 carbonylations | prevent glucose uptake impairment induced by 4-HNE and H2O2 |
